Experimental findings from patent US12478677B2, “Tunable luminescent organic salts for enhanced imaging and photodynamic therapy” (BOARD OF TRUSTEES OF MICHIGAN STATE UNIVERSITY, priority 2017, dated 2025) are described below.

Entries after “also recorded” stand apart in the source; their conditions may differ. Read-outs that look alike come from different tables or passages of the source.

Data set [1] deals with A549 cells. Description: Viability studies (trypan blue staining and cell counting) with or without IR excitation. Conditions: for IC50: linear regression analysis; for Toxicity in words, dark and light: with or without IR (850 nm) excitation; for Toxicity in the dark, in words: without IR excitation; for Phototoxicity with IR excitation, in words: IR (850 nm) excitation. It counts as cell-based, human. How it is done: The cell lines human lung carcinoma (A549), metastatic human melanoma (WM1158) and Vemurafenib-resistant melanoma (Sk-Mel-28-Vem^R) are used. Sk-Mel-28-Vem^R is generated by culturing a parental melanoma cell lines in the presence of 2 μM Vemurafenib for 2 months. Acquired Vemurafenib resistance is defined by >1 log change in IC50 between nonresistant and resistant cell lines. Resistance is maintained through media supplementation with 2 μM Vemurafenib, which is changed every 48 hours. All cells are cultured in DMEM without pyruvate with 10% heat inactivated fetal bovine serum supplemented with glutamine and penicillin/streptomycin, and incubated in 37° C. with 5% CO2.
A549 and WM1158 cells are seeded at a density of 50,000 cells per well in 6-well tissue culture plates. After 24 hours of incubation, media is aspirated and replaced with media containing luminescent dyes at indicated concentrations. Each well is irradiated with an 850 nm LED lamp with an illumination rate of 526 mW/cm^2 for an hour in the incubator, and control cells are left in a dark incubator without irradiation. For studies with Cy7, a 740 nm LED lamp is used instead of an 850 nm, but with a similar illumination flux. Immediately after irradiation, the media is replenished with fresh dye-laced media and allowed to incubate for another 24 hours. […] Viable cell number is determined at 24 and 96 hours using trypan blue staining and a Nexcelom Cellometer Auto T4 cell counter. All assays are done with 3 biological replicates. The fold change in cell proliferation over days of treatment was calculated using the following equation.

The nature of data set [2]: Salt integrity and aggregation in cell media (mass spectrometry, electron microscopy, UV-Vis). Format: physicochemical. The conditions noted are these: for Integrity of salt pairing in cellular environments: high resolution mass spectrometry, electron microscopy, UV-Vis spectroscopy. The text has this: FIGS. 7A-7C. […] Organic salts were first dissolved in DMSO and then diluted in water, forming nanoparticles. […] Combinations of H- and J-aggregation of organic salts can be seen by blue-shifted peaks (lower wavelength) and red-shifted peaks (higher wavelength), respectively. The nanoparticles with small hard anions redissolve in cell media likely due to sterics. […] This is achieved by cation-anion pairs of luminescent organic salts that can be modulated to be either non-toxic for enhanced imaging, or phototoxic for improved PDT. […] IR polymethine cyanine dyes, which have been used as effective theranostics are described. […] This is thought to occur through a mechanism mitigated by tumor vascularization, increased retention in cancer cells, and mitochondrial depolarization. Once in the cell, they accumulate in the mitochondria and lysosomes, where irradiation induces generation of cytotoxic oxygen species. A strategy is described for preventing or inhibiting salt dissociation in cells: aggregates are formed via introduction of the salt into an aqueous media by a solvent vehicle, forming particles with diameters of about 5 nm in size with no precipitation observed. […] This is confirmed by high resolution mass spectrometry, electron microscopy, and UV-Vis spectroscopy. […] Normalized absorption data are sown in FIGS. 7A, 7B, and 7C. This is likely due to steric effects, where if the counterion radius is too small it is not able to protect the nanoparticle stability. This can be characterized by the volume-averaged effective spherical radius of the counterions, where the cutoff is at about 0.275 nm.

The nature of data set [3]: Absorption and emission spectra. Format: physicochemical. How it is done: FIGS. 8A-8F. Non-toxic cation-anion pair enhances live cell IR fluorescence imaging. FIG. 8A is a graph showing tunable organic salts absorb and emit in the IR (700-1200 nm) and eliminate background noise from absorbance/emission tissue components such as melanin, water, oxyhemoglobin (Hb-O2) and hemoglobin (Hb). […] A549 cells were incubated with vehicle, 1 μM CyPF6, or 1 μM CyTPFB with or without IR (850 nm) excitation. Cell viability determined by trypan blue staining and cell counting. (D) CyTPFB staining in A549 cells. (E) DNA staining using 4',6-diamidino-2-phenylindole (DAPI). (F) Superimposed CyTPFB+DAPI staining. Effective fluorescence dyes must be non-toxic for live cell imaging. […] Further developed are luminescent dyes that absorb and emit in the optical tissue window for imaging without background absorption/emission from components of tissue such as water, hemoglobin, and melanin, as shown in FIG. 8A. Heptamethine cyanine (Cy^+) is a photoactive cation that absorbs and emits in IR wavelengths, with an excitation/emission maximum of 830/848 nm, as shown in FIG. 8B. The deeper excitation and emission of Cy^+ provide an advantage over Cy7 (excitation/emission maximum of 750/773 nm), allowing imaging at greater tissue depths. […] Imaging live cells with these toxic cation-anion pairs requires usage of low doses that result in low absorbance and emission, resulting in poor quality images. […] CyTPFB is non-toxic to cells even at greater than 20-fold higher concentrations of 20 μM. The non-toxic nature of CyTPBF allows use of high doses in eukaryotic and prokaryotic cells for enhanced IR imaging with greater brightness, as shown in FIGS. 8D-8F for a eukaryotic cell example.

The subject of data set [4] is mitochondrial superoxide. In words: MitoSOX measurement of mitochondrial superoxide. The conditions noted are these: A549 cells treated 4 days at phototoxic concentrations; with or without light. Format: cell-based, human. The text has this: FIG. 22. Luminescent organic salts generate mitochondrial ROS. […] MitoSOX is used to measure mitochondrial superoxide, and H2DCFDA for general cytoplasmic ROS in A549 cell treated with organic salts at indicated phototoxic concentrations for 4 days.
Photoactive agents accumulate in the mitochondria of cancer cells and generate reactive oxygen species (ROS) with light exposure, depolarizing the mitochondrial membrane potential to cause cell death. Small molecule protective agents that quench ROS have been used to decrease their phototoxicity. However, the exact type of ROS generated by each luminescent agent remains unclear. Photo-induced ROS include singlet oxygen, superoxide radical anion, hydrogen peroxide, hydroxyl radical and others (see FIG. 21). Superoxide is a highly reactive and biologically toxic species deployed in nature to kill invading organisms. It is often formed as a byproduct of mitochondrial respiration but is typically quenched by the highly efficient superoxide dismutase. Hydroxyl radicals are also highly reactive, damaging nearly all forms of biological molecules. Unlike superoxide radical, the hydroxyl radical cannot be easily quenched naturally via enzymes, and endogenous antioxidants are typically required. Singlet oxygen is the excited state of the common triplet oxygen (O2 ground state) and is highly reactive towards organic compounds. Singlet oxygen can be eliminated in mammalian systems by antioxidants. A range of nitroxy radicals can subsequently stem from superoxide (peroxynitrite) or peroxide (nitrogen dioxide) species. […] Each luminescent cation-anion pair generates specific ROS resonant with its own energy level, and cell types can be targeted by generating the key sensitizing ROS. For example, it is expected that CyFPhB is phototoxic (see FIGS. 11A and 11B and 12A and 12B) by generating reactive oxygen species, which can be resonant with its molecular orbital energy levels (FIG. 21). […] No cytoplasmic ROS is detected using general cytoplasmic ROS probe H2DCFDA. […]

Setting [5] is: A549 cells, 850 nm irradiation, read-out: IC50 850 nm.
The mark [6] stands for this setting: A549 cells, dark, no irradiation, read-out: IC50 Dark.

As to `CCN1C(=CC=C2CCCC(C=CC3=[N+](CC)c4ccc5ccccc5c4C3(C)C)=C2Cl)C(C)(C)c2c1ccc1ccccc21.FC(F)(F)c1cc([B-](c2cc(C(F)(F)F)cc(C(F)(F)F)c2)(c2cc(C(F)(F)F)cc(C(F)(F)F)c2)c2cc(C(F)(F)F)cc(C(F)(F)F)c2)cc(C(F)(F)F)c1` [CyTFM], in data set [1] (setting [5]), the IC50 (usually the midpoint of a concentration-inhibition curve) turned out to be 29 µM. Also, in data set [1] (setting [6]), the IC50 turned out to be 125 µM. Besides, in data set [1] (A549 cells), the “Toxicity in words, dark and light” value was “not toxic to cells in the dark and in the light”; the “Toxicity in the dark, in words” value is reported as “deactivates the dark cellular toxicity”. Moreover, the “Integrity of salt pairing in cellular environments” value (“Integrity of salt pairing” below) in data set [2] is “maintained in cellular environments”.
Turning to `C[N+]1=C(C=CC2=CC(=CC=C3N(CCCCCC(=O)ON4C(=O)CCC4=O)c4ccccc4C3(C)C)CCC2)C(C)(C)c2ccccc21.[Cl-]` [Cy7, Cyanine7 NHS ester, reference compound], the “Toxicity of Cy7 salts, in words” value in data set [1] (A549 cells, with or without IR (740 nm) excitation) is on record as “highly cytotoxic”. Further, the “Concentration at which cytotoxic” value in data set [1] (cells, toxic at low concentration, even without IR light) worked out at 1 µM. In data set [3], the Emission maximum amounted to 773 nm and the Excitation maximum was found to be 750 nm.
Regarding `[I-].[K+]` [KI, reference compound], the “Toxicity in words, dark and light” value in data set [1] (A549 cells) is “not toxic; also recorded: does not cause toxicity in the dark or with light”.
With `CCN1C(=CC=C2CCCC(C=CC3=[N+](CC)c4ccc5ccccc5c4C3(C)C)=C2Cl)C(C)(C)c2c1ccc1ccccc21.Clc1c(Cl)c(Cl)c2c(c1Cl)O[P-]13(O2)(Oc2c(Cl)c(Cl)c(Cl)c(Cl)c2O1)Oc1c(Cl)c(Cl)c(Cl)c(Cl)c1O3` [CyTRIS], the IC50 came out at 1200 µM in data set [1] (setting [5]) and 1220 µM in data set [1] (setting [6]). Moreover, the “Toxicity in words, dark and light” value in data set [1] (A549 cells) was “not toxic to cells in the dark and in the light”. For the same compound, in data set [1] (A549 cells), the “Toxicity in the dark, in words” value is given as “deactivates the dark cellular toxicity”. The “Integrity of salt pairing” value in data set [2] is on record as “maintained in cellular environments”.
In data set [3], `CCN1C(=CC=C2CCCC(C=CC3=[N+](CC)c4ccc5ccccc5c4C3(C)C)=C2Cl)C(C)(C)c2c1ccc1ccccc21` [Cy^+, 2-[2-[2-chloro-3-[2-(1,3-dihydro-3,3-dimethyl-1-ethyl-2H-benz[e]indol-2-ylidene)ethylidene]-1-cylohexen-1-yl]-ethenyl]-3,3-dimethyl-1-ethyl-1H-benz[e]indolium] came in with an Emission maximum of 848 nm and an Excitation maximum of 830 nm.
For the compound `CCN1C(=CC=C2CCCC(C=CC3=[N+](CC)c4ccc5ccccc5c4C3(C)C)=C2Cl)C(C)(C)c2c1ccc1ccccc21.Fc1ccc([B-](c2ccc(F)cc2)(c2ccc(F)cc2)c2ccc(F)cc2)cc1` [CyFPhB], the IC50 in data set [1] (setting [5]) worked out at 3.5 µM; in data set [1] (setting [6]) it was 46 µM. Further, the “Phototoxicity with IR excitation, in words” value is reported as “most phototoxic; also recorded: cause significant cell death with IR excitation; also recorded: highly phototoxic” in data set [1] (A549 cells) and “phototoxic” in data set [1] (A549 cells, listed as Cy^+ paired with FPhB). Moreover, in data set [1] (A549 cells), the “Toxicity in words, dark and light” value is “phototoxic but not cytotoxic; also recorded: phototoxic (but not cytotoxic)”. In addition, the “Toxicity in the dark, in words” value in data set [1] (A549 cells) is “allow cell growth in the dark”; in data set [1] (A549 cells, listed as Cy^+ paired with FPhB^−), “deactivates the dark cellular toxicity”. Further, the “Mitochondrial superoxide / ROS generation (MitoSOX), in words” value in data set [4] was “photo-generating ROS only with illumination; also recorded: photo-generating superoxide only with illumination”. Also, the “Aggregation / nanoparticle behaviour in cell media, in words” value in data set [2] (cell media) was “forms small photoactive nanoparticles in cell media”. For the same compound, the “Average nanoparticle size in cell media” value in data set [2] (cell media) is listed as less than 10 nm. Also, the “Integrity of salt pairing” value in data set [2] was “maintained in cellular environments”.
